Results reported in patent publication US11180462B2, “Microbiocidal oxadiazole derivatives” (SYNGENTA PARTICIPATIONS AG, priority 2015, dated 2021).

How the values were obtained:
[1] = system: Puccinia recondita f. Sp. Tritici; experiment: Fungicidal activity against Puccinia recondita f. sp. tritici / wheat / leaf disc curative (brown rust); type: in vivo; settings: foliar, 24 h, 200 ppm in the applied formulation, wheat leaf segments, curative (applied 1 day after inoculation), compared to untreated control leaf disks, read-out: disease control
Outline: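 Inoculate cv. Kanzler segments on agar; hold dark, 19° C, 75% RH. Spray diluted formulated compound at day 1. Incubate 12 h light/12 h dark, same temperature and humidity; score % control vs untreated 6–8 days later.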

[2] = system: Puccinia recondita f. Sp. Tritici; experiment: Fungicidal activity against Puccinia recondita f. sp. tritici / wheat / leaf disc preventative (brown rust); type: in vivo; settings: foliar, 200 ppm in the applied formulation, wheat leaf segments, preventative, compared to untreated control leaf disks, read-out: disease control
Outline: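 Compound application precedes infection: segments of wheat cv. Kanzler, sprayed at 200 ppm, are inoculated with a spore suspension after 1 day. Incubation is at 19° C. with 75% relative humidity and 12 h light/12 h darkness, and control versus untreated leaves is rated 7 to 9 days post-application.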

[3] = system: Glomerella lagenarium (Colletotrichum lagenarium); experiment: Fungicidal activity against Glomerella lagenarium (Colletotrichum lagenarium) liquid culture / cucumber / preventative (anthracnose); type: cell-based; settings: Colletotrichum orbiculare; 20 ppm in the applied formulation; liquid culture (PDB), growth inhibition measured photometrically after 3 to 4 days; compared to untreated control; read-out: disease control
Outline: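 Photometric read-out of fungal growth after 2–7 days, expressed as percent antifungal activity versus untreated check. Cryo-stored conidia in PDB; compound at 20 ppm; dark, 24 °C, 96% RH.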

Phakopsora Pachyrhizi = experiment: Fungicidal activity against Phakopsora pachyrhizi / soybean / leaf disc preventative (Asian soybean rust); type: in vivo; settings: foliar, 200 ppm in the applied formulation, soybean leaf disks, compared to untreated control leaf disks, read-out: disease control
Outline: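 Preventative soybean leaf-disc test: discs on water agar sprayed with diluted formulated compound, inoculated one day later with spores on the lower surface. Held 24–36 h dark at 20°C, 75% rh, then 12 h light/day; percent disease control versus untreated discs scored 12–14 days after application.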

O=C(C1CCCO1)N(O)Cc1ccc(-c2noc(C(F)(F)F)n2)cc1 (centres unmarked) [Compound 1.770, N-hydroxy-N-[[4-[5-(trifluoromethyl)-1,2,4-oxadiazol-3-yl]phenyl]methyl]-tetrahydrofuran-2-carboxamide]
≥ 80%: pest or weed control at 200 ppm [1] | pest or weed control at 200 ppm [2] | inhibition of growth at 20 ppm [3] | pest or weed control at 200 ppm (Phakopsora Pachyrhizi)

CCN(Cc1ccc(-c2noc(C(F)(F)F)n2)cc1)C(=O)C(C)OC (centres unmarked) [Compound 1.512, N-ethyl-2-methoxy-N-[[4-[5-(trifluoromethyl)-1,2,4-oxadiazol-3-yl]phenyl]methyl]-propanamide]
≥ 80%: pest or weed control at 200 ppm [1] | pest or weed control at 200 ppm [2] | inhibition of growth at 20 ppm [3] | pest or weed control at 200 ppm (Phakopsora Pachyrhizi)

CCC(COC)C(=O)N(Cc1ccc(-c2noc(C(F)(F)F)n2)cc1)C1CC1 (centres unmarked) [Compound 1.134, N-cyclopropyl-2-(methoxymethyl)-N-[[4-[5-(trifluoromethyl)-1,2,4-oxadiazol-3-yl]phenyl]methyl]-butanamide]
≥ 80%: pest or weed control at 200 ppm [1] | pest or weed control at 200 ppm [2] | inhibition of growth at 20 ppm [3] | pest or weed control at 200 ppm (Phakopsora Pachyrhizi)

CCC(COC)C(=O)N(Cc1ccc(-c2noc(C(F)(F)F)n2)cc1)OC (centres unmarked) [Compound 1.57, N-methoxy-2-(methoxymethyl)-N-[[4-[5-(trifluoromethyl)-1,2,4-oxadiazol-3-yl]phenyl]methyl]-butanamide]
≥ 80%: pest or weed control at 200 ppm [1] | pest or weed control at 200 ppm [2] | inhibition of growth at 20 ppm [3] | pest or weed control at 200 ppm (Phakopsora Pachyrhizi)

CON(Cc1ccc(-c2noc(C(F)(F)F)n2)cc1)C(=O)N(C)CC#N [Compound 3.57, 1-(cyanomethyl)-3-methoxy-1-methyl-3-[[4-[5-(trifluoromethyl)-1,2,4-oxadiazol-3-yl]phenyl]methyl]urea]
≥ 80%: pest or weed control at 200 ppm [1] | pest or weed control at 200 ppm [2] | inhibition of growth at 20 ppm [3] | pest or weed control at 200 ppm (Phakopsora Pachyrhizi)

CON(Cc1ccc(-c2noc(C(F)(F)F)n2)cc1)C(=O)CCCCC(F)(F)F [Compound 1.53, 6,6,6-trifluoro-N-methoxy-N-[[4-[5-(trifluoromethyl)-1,2,4-oxadiazol-3-yl]phenyl]methyl]-hexanamide]
≥ 80%: pest or weed control at 200 ppm [1] | pest or weed control at 200 ppm [2] | inhibition of growth at 20 ppm [3] | pest or weed control at 200 ppm (Phakopsora Pachyrhizi)

CCCCCC(=O)N(Cc1ccc(-c2noc(C(F)(F)F)n2)cc1)OC [Compound 1.20, N-methoxy-N-[[4-[5-(trifluoromethyl)-1,2,4-oxadiazol-3-yl]phenyl]methyl]-hexanamide]
≥ 80%: pest or weed control at 200 ppm [1] | pest or weed control at 200 ppm [2] | inhibition of growth at 20 ppm [3] | pest or weed control at 200 ppm (Phakopsora Pachyrhizi)

CC(C)C(=O)N(O)Cc1ccc(-c2noc(C(F)(F)F)n2)cc1 [Compound 1.752, N-hydroxy-2-methyl-N-[[4-[5-(trifluoromethyl)-1,2,4-oxadiazol-3-yl]phenyl]methyl]-propanamide]
≥ 80%: pest or weed control at 200 ppm [1] | pest or weed control at 200 ppm [2] | inhibition of growth at 20 ppm [3] | pest or weed control at 200 ppm (Phakopsora Pachyrhizi)

CCC(=O)N(Cc1ccc(-c2noc(C(F)(F)F)n2)c(F)c1)OC [Compound 1.580, N-[[3-fluoro-4-[5-(trifluoromethyl)-1,2,4-oxadiazol-3-yl]phenyl]methyl]-N-methoxy-propanamide]
≥ 80%: pest or weed control at 200 ppm [1] | pest or weed control at 200 ppm [2] | inhibition of growth at 20 ppm [3] | pest or weed control at 200 ppm (Phakopsora Pachyrhizi)

CON(Cc1ccc(-c2noc(C(F)(F)F)n2)cc1)C(=O)C1(C(F)(F)F)CC1 [Compound 1.6, N-methoxy-1-(trifluoromethyl)-N-[[4-[5-(trifluoromethyl)-1,2,4-oxadiazol-3-yl]phenyl]methyl]-cyclopropane-carboxamide]
≥ 80%: pest or weed control at 200 ppm [1] | pest or weed control at 200 ppm [2] | inhibition of growth at 20 ppm [3] | pest or weed control at 200 ppm (Phakopsora Pachyrhizi)

CCC(C)C(=O)N(CC)Cc1ccc(-c2noc(C(F)(F)F)n2)cc1 (centres unmarked) [Compound 1.506, N-ethyl-2-methyl-N-[[4-[5-(trifluoromethyl)-1,2,4-oxadiazol-3-yl]phenyl]methyl]-butanamide]
≥ 80%: pest or weed control at 200 ppm [1] | pest or weed control at 200 ppm [2] | inhibition of growth at 20 ppm [3] | pest or weed control at 200 ppm (Phakopsora Pachyrhizi)

COCCC(=O)N(O)Cc1ccc(-c2noc(C(F)(F)F)n2)cc1 [Compound 1.758, N-hydroxy-3-methoxy-N-[[4-[5-(trifluoromethyl)-1,2,4-oxadiazol-3-yl]phenyl]methyl]-propanamide]
≥ 80%: pest or weed control at 200 ppm [1] | pest or weed control at 200 ppm [2] | inhibition of growth at 20 ppm [3] | pest or weed control at 200 ppm (Phakopsora Pachyrhizi)

CCC(=O)N(Cc1ccc(-c2noc(C(F)(F)F)n2)cc1)CC(F)(F)F [Compound 1.582, N-(2,2,2-trifluoroethyl)-N-[[4-[5-(trifluoromethyl)-1,2,4-oxadiazol-3-yl]phenyl]methyl]-propanamide]
≥ 80%: pest or weed control at 200 ppm [1] | pest or weed control at 200 ppm [2] | inhibition of growth at 20 ppm [3] | pest or weed control at 200 ppm (Phakopsora Pachyrhizi)

CCC(=O)N(CCO)Cc1ccc(-c2noc(C(F)(F)F)n2)cc1 [Compound 1.591, N-(2-hydroxyethyl)-N-[[4-[5-(trifiuoromethyl)-1,2,4-oxadiazol-3-yl]phenyl]methyl]-propanamide]
≥ 80%: pest or weed control at 200 ppm [1] | pest or weed control at 200 ppm [2] | inhibition of growth at 20 ppm [3] | pest or weed control at 200 ppm (Phakopsora Pachyrhizi)

CCOCC(=O)N(CCOC)Cc1ccc(-c2noc(C(F)(F)F)n2)cc1 [Compound 1.339, 2-ethoxy-N-(2-methoxyethyl)-N-[[4-[5-(trifluoromethyl)-1,2,4-oxadiazol-3-yl]phenyl]methyl]-acetamide]
≥ 80%: pest or weed control at 200 ppm [1] | pest or weed control at 200 ppm [2] | inhibition of growth at 20 ppm [3] | pest or weed control at 200 ppm (Phakopsora Pachyrhizi)

CCCN(Cc1ccc(-c2noc(C(F)(F)F)n2)cc1)C(=O)C1CC1(F)F (centres unmarked) [Compound 1.652, 2,2-difluoro-N-propyl-N-[[4-[5-(trifluoromethyl)-1,2,4-oxadiazol-3-yl]phenyl]methyl]-cyclopropane-carboxamide]
≥ 80%: pest or weed control at 200 ppm [1] | pest or weed control at 200 ppm [2] | inhibition of growth at 20 ppm [3] | pest or weed control at 200 ppm (Phakopsora Pachyrhizi)

CC(C)C(=O)N(CCO)Cc1ccc(-c2noc(C(F)(F)F)n2)cc1 [Compound 1.707, N-(2-hydroxyethyl)-2-methyl-N-[[4-[5-(trifluoromethyl)-1,2,4-oxadiazol-3-yl]phenyl]methyl]-propanamide]
≥ 80%: pest or weed control at 200 ppm [1] | pest or weed control at 200 ppm [2] | inhibition of growth at 20 ppm [3] | pest or weed control at 200 ppm (Phakopsora Pachyrhizi)

O=C(CCC(F)(F)F)N(Cc1ccc(-c2noc(C(F)(F)F)n2)cc1)C1CC1 [Compound 1.101, N-cyclopropyl-4,4,4-trifluoro-N-[[4-[5-(trifluoromethyl)-1,2,4-oxadiazol-3-yl]phenyl]methyl]-butanamide]
≥ 80%: pest or weed control at 200 ppm [1] | pest or weed control at 200 ppm [2] | inhibition of growth at 20 ppm [3] | pest or weed control at 200 ppm (Phakopsora Pachyrhizi)

O=C(C1CCOC1)N(Cc1ccc(-c2noc(C(F)(F)F)n2)cc1)CC1CC1 (centres unmarked) [Compound 1.215, N-(cyclopropylmethyl)-N-[[4-[5-(trifluoromethyl)-1,2,4-oxadiazol-3-yl]phenyl]methyl]-tetrahydrofuran-3-carboxamide]
≥ 80%: pest or weed control at 200 ppm [1] | pest or weed control at 200 ppm [2] | inhibition of growth at 20 ppm [3] | pest or weed control at 200 ppm (Phakopsora Pachyrhizi)

CC(C)N(Cc1ccc(-c2noc(C(F)(F)F)n2)cc1)C(=O)CC1CC1 [Compound 1.688, 2-cycloopropyl-N-isopropyl-N-[[4-[5-(trifluoromethyl)-1,2,4-oxadiazol-3-yl]phenyl]methyl]-acetamide]
≥ 80%: pest or weed control at 200 ppm [1] | pest or weed control at 200 ppm [2] | inhibition of growth at 20 ppm [3] | pest or weed control at 200 ppm (Phakopsora Pachyrhizi)

CCN(C)C(=O)N(Cc1ccc(-c2noc(C(F)(F)F)n2)cc1)OC [Compound 3.17, 1-ethyl-3-methoxy-1-methyl-3-[[4-[5-(trifluoromethyl)-1,2,4-oxadiazol-3-yl]phenyl]methyl]urea]
≥ 80%: pest or weed control at 200 ppm [1] | pest or weed control at 200 ppm [2] | inhibition of growth at 20 ppm [3] | pest or weed control at 200 ppm (Phakopsora Pachyrhizi)

CON(C(=O)C1CCCO1)C(C)c1ccc(-c2noc(C(F)(F)F)n2)cc1 (centres unmarked) [Compound 1.273, N-methoxy-N-[1-[4-[5-(trifluoromethyl)-1,2,4-oxadiazol-3-yl]phenyl]ethyl]-tetrahydrofuran-2-carboxamide]
≥ 80%: pest or weed control at 200 ppm [1] | pest or weed control at 200 ppm [2] | inhibition of growth at 20 ppm [3] | pest or weed control at 200 ppm (Phakopsora Pachyrhizi)

CC(C)C(NC(=O)C1CC1)C(=O)N(Cc1ccc(-c2noc(C(F)(F)F)n2)cc1)C1CC1 (centres unmarked) [Compound 1.132, N-[1-[cyclopropyl-[[4-[5-(trifluoromethyl)-1,2,4-oxadiazol-3-yl]phenyl]methyl]-carbamoyl]-2-methyl-propyl]-cyclopropane-carboxamide]
≥ 80%: pest or weed control at 200 ppm [1] | pest or weed control at 200 ppm [2] | inhibition of growth at 20 ppm [3] | pest or weed control at 200 ppm (Phakopsora Pachyrhizi)
